Data taken from ChEMBL document CHEMBL1201862, “PubChem BioAssay data set” (2004).
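48-hour exposure; five concentrations; linearly interpolated endpoints. At the GI50, growth is halved.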 The source made the active and inactive calls. Cut-off read from the data, not from the text of the source: active = GI50 up to about 1.1 µM and inactive = higher.

Key:
Experiment in all cases: NCI-60 cell line screen, 48 h
[1] = system: CCRF-CEM
[2] = system: HCC 2998
[3] = system: HCT-116
[4] = system: NCI-H460
[5] = system: MDA-MB-231
[6] = system: EKVX
[7] = system: NCI/ADR-RES
[8] = system: OVCAR-8
[9] = system: UACC-257
[10] = system: SN12C
[11] = system: OVCAR-3
[12] = system: HCT-15
[13] = system: UO-31
[14] = system: COLO 205
[15] = system: HOP-62
[16] = system: 786-0
[17] = system: SF-539
[18] = system: SK-MEL-5
[19] = system: MDA-MB-435

SMILES	GI50 [1]	GI50 [2]	GI50 [3]	GI50 [4]	GI50 [5]	GI50 [6]	GI50 [7]	GI50 [8]	GI50 [9]	GI50 [10]	GI50 [11]	GI50 [12] [µM]	GI50 [13]	GI50 [14]	GI50 [15]	GI50 [16]	GI50 [17]	GI50 [18]	GI50 [19]
O=C(CCc1ccccc1)ON1C(=S)C(c2ccccc2)(c2ccccc2)N=C1Sc1ccccc1	20.3 µM (inactive)	46.6 µM (inactive)	19.3 µM (inactive)	12.4 µM (inactive)	> 100 µM (inactive)	26.6 µM (inactive)	33.7 µM (inactive)	38.7 µM (inactive)	> 100 µM (inactive)	68.5 µM (inactive)	60 µM (inactive)	24.9	60.3 µM (inactive)	35.5 µM (inactive)	41.8 µM (inactive)	26.5 µM (inactive)	44.6 µM (inactive)	37.5 µM (inactive)	–
COc1ccc(-n2c(N)c(C#N)c(C#N)c2-c2cccc([N+](=O)[O-])c2)cc1	5.31 µM (inactive)	> 100 µM (inactive)	–	–	67 µM (inactive)	26 µM (inactive)	> 100 µM (inactive)	88.9 µM (inactive)	> 100 µM (inactive)	> 100 µM (inactive)	> 100 µM (inactive)	> 100	15 µM (inactive)	> 100 µM (inactive)	67.5 µM (inactive)	33.9 µM (inactive)	32.4 µM (inactive)	22.9 µM (inactive)	> 100 µM (inactive)
CCC(=O)OC1=C(c2ccccc2)Sc2ccc(Cl)cc2-n2cccc21	8.89 µM (inactive)	> 10 µM (inactive)	–	–	4.47 µM (inactive)	> 10 µM (inactive)	–	> 10 µM (inactive)	> 10 µM (inactive)	5.05 µM (inactive)	–	4.69	–	> 10 µM (inactive)	> 10 µM (inactive)	> 10 µM (inactive)	–	> 10 µM (inactive)	2.22 µM (inactive)
O=C(O)c1cc(-c2ccccc2O)nc2ccccc12	> 100 µM (inactive)	> 100 µM (inactive)	> 100 µM (inactive)	> 100 µM (inactive)	–	> 100 µM (inactive)	–	> 100 µM (inactive)	> 100 µM (inactive)	> 100 µM (inactive)	> 100 µM (inactive)	> 100	> 100 µM (inactive)	> 100 µM (inactive)	> 100 µM (inactive)	> 100 µM (inactive)	> 100 µM (inactive)	> 100 µM (inactive)	–
Oc1ccc(O)c(-n2cccn2)c1	20.6 µM (inactive)	> 100 µM (inactive)	–	> 100 µM (inactive)	–	> 100 µM (inactive)	–	40.7 µM (inactive)	–	94.4 µM (inactive)	–	> 100	56.4 µM (inactive)	23 µM (inactive)	> 100 µM (inactive)	62.1 µM (inactive)	> 100 µM (inactive)	> 100 µM (inactive)	–
CC(=O)O[C@H]1CCN2C(=O)C=CC(OCc3ccccc3)C12 (stereo partly drawn)	> 100 µM (inactive)	> 100 µM (inactive)	–	> 100 µM (inactive)	–	> 100 µM (inactive)	–	> 100 µM (inactive)	> 100 µM (inactive)	> 100 µM (inactive)	> 100 µM (inactive)	> 100	> 100 µM (inactive)	> 100 µM (inactive)	> 100 µM (inactive)	> 100 µM (inactive)	> 100 µM (inactive)	> 100 µM (inactive)	–
O=C(Nc1cccc(NC(=O)c2cc(=O)c3ccccc3o2)n1)c1cc(=O)c2ccccc2o1	42.2 µM (inactive)	60.1 µM (inactive)	27.1 µM (inactive)	40.4 µM (inactive)	–	57.4 µM (inactive)	–	> 100 µM (inactive)	56.5 µM (inactive)	–	37.6 µM (inactive)	4.06	10.4 µM (inactive)	74.3 µM (inactive)	90.8 µM (inactive)	> 100 µM (inactive)	20.3 µM (inactive)	64.9 µM (inactive)	–
COc1ccccc1NC(=O)C1=C(C)NC(C)=C(C(=O)Nc2ccccc2OC)C1c1ccc(C2C(C(=O)Nc3ccccc3OC)=C(C)NC(C)=C2C(=O)Nc2ccccc2OC)cc1	0.813 µM (active)	1.95 µM (inactive)	1.3 µM (inactive)	2.78 µM (inactive)	–	2.54 µM (inactive)	–	2.53 µM (inactive)	2.33 µM (inactive)	1.79 µM (inactive)	2.29 µM (inactive)	2.72	4.14 µM (inactive)	3.33 µM (inactive)	6.35 µM (inactive)	1.78 µM (inactive)	1.68 µM (inactive)	2.84 µM (inactive)	–
COc1cc(/C=C/C(=O)OC[C@H](Br)[C@H](OC(C)=O)c2ccc3c(c2)OCO3)cc(OC)c1OC	> 100 µM (inactive)	80.4 µM (inactive)	> 100 µM (inactive)	–	> 100 µM (inactive)	> 100 µM (inactive)	57.7 µM (inactive)	> 100 µM (inactive)	> 100 µM (inactive)	> 100 µM (inactive)	> 100 µM (inactive)	> 100	26 µM (inactive)	> 100 µM (inactive)	> 100 µM (inactive)	> 100 µM (inactive)	> 100 µM (inactive)	> 100 µM (inactive)	> 100 µM (inactive)
O=C(O)c1ccccc1-c1ccccc1C(=O)Nc1ccc2c(c1)nc(O)c1ccccc12	62.8 µM (inactive)	–	> 100 µM (inactive)	> 100 µM (inactive)	88.9 µM (inactive)	> 100 µM (inactive)	> 100 µM (inactive)	> 100 µM (inactive)	> 100 µM (inactive)	> 100 µM (inactive)	> 100 µM (inactive)	> 100	> 100 µM (inactive)	> 100 µM (inactive)	> 100 µM (inactive)	> 100 µM (inactive)	94.2 µM (inactive)	> 100 µM (inactive)	89.7 µM (inactive)
O=C(c1ccccc1)C(c1ccccc1)C1(O)C(=O)Nc2ccccc21 (stereo not drawn)	> 100 µM (inactive)	> 100 µM (inactive)	> 100 µM (inactive)	> 100 µM (inactive)	–	> 100 µM (inactive)	–	> 100 µM (inactive)	> 100 µM (inactive)	> 100 µM (inactive)	> 100 µM (inactive)	> 100	44.4 µM (inactive)	> 100 µM (inactive)	> 100 µM (inactive)	> 100 µM (inactive)	> 100 µM (inactive)	> 100 µM (inactive)	–
CS(=O)(=O)CSCSSCS(C)(=O)=O	22.2 µM (inactive)	> 100 µM (inactive)	34.4 µM (inactive)	26.2 µM (inactive)	–	> 100 µM (inactive)	–	30.2 µM (inactive)	28.4 µM (inactive)	29.2 µM (inactive)	47.1 µM (inactive)	28	32.1 µM (inactive)	18.2 µM (inactive)	51.8 µM (inactive)	20.1 µM (inactive)	22 µM (inactive)	40.8 µM (inactive)	–
CCOC(=O)CC1NC(=O)CS1 (stereo not drawn)	> 100 µM (inactive)	> 100 µM (inactive)	21.7 µM (inactive)	60.4 µM (inactive)	–	> 100 µM (inactive)	–	> 100 µM (inactive)	> 100 µM (inactive)	36.6 µM (inactive)	> 100 µM (inactive)	20	> 100 µM (inactive)	4.39 µM (inactive)	> 100 µM (inactive)	45.8 µM (inactive)	> 100 µM (inactive)	> 100 µM (inactive)	–
Oc1[nH]c(Nc2ccc(Cl)cc2)nc2ncnc1-2	–	98.6 µM (inactive)	84.3 µM (inactive)	> 100 µM (inactive)	88.3 µM (inactive)	> 100 µM (inactive)	> 100 µM (inactive)	> 100 µM (inactive)	> 100 µM (inactive)	> 100 µM (inactive)	> 100 µM (inactive)	> 100	–	> 100 µM (inactive)	> 100 µM (inactive)	> 100 µM (inactive)	> 100 µM (inactive)	> 100 µM (inactive)	> 100 µM (inactive)
CC(C)OC(=O)/C=C/C(=O)O/C=C/[N+](=O)[O-]	–	20.5 µM (inactive)	17.7 µM (inactive)	60.7 µM (inactive)	36.5 µM (inactive)	18.2 µM (inactive)	8.55 µM (inactive)	15.7 µM (inactive)	19.9 µM (inactive)	–	31.7 µM (inactive)	35	36.1 µM (inactive)	16.6 µM (inactive)	34 µM (inactive)	29.2 µM (inactive)	37.1 µM (inactive)	31.6 µM (inactive)	38.9 µM (inactive)
CCc1cc(Cc2cc(CC)c(NC(=O)C3=CC(=O)CC(c4ccc(OC)cc4)O3)c(CC)c2Cl)c(Cl)c(CC)c1NC(=O)C1=CC(=O)CC(c2ccc(OC)cc2)O1 (stereo not drawn)	28.1 µM (inactive)	16.7 µM (inactive)	16.7 µM (inactive)	17.7 µM (inactive)	–	30.5 µM (inactive)	–	26.5 µM (inactive)	16 µM (inactive)	22 µM (inactive)	19.1 µM (inactive)	25.6	16.5 µM (inactive)	17.8 µM (inactive)	22.2 µM (inactive)	18.4 µM (inactive)	20.2 µM (inactive)	20.3 µM (inactive)	–
CN(C)CCNC(=O)c1cccc2c1nc(-c1ccccc1)c1ccccc12	1.61 µM (inactive)	3.82 µM (inactive)	2.69 µM (inactive)	0.4 µM (active)	–	12.9 µM (inactive)	–	4.43 µM (inactive)	1.73 µM (inactive)	3.01 µM (inactive)	8.09 µM (inactive)	2.68	1.82 µM (inactive)	3.48 µM (inactive)	4.27 µM (inactive)	3.97 µM (inactive)	2.19 µM (inactive)	2.13 µM (inactive)	–
